Results published in patent publication US5948884A, “Cyclosporin derivatives with anti-HIV effect” (priority 1995, dated 1999).
≈ marks a conversion by molar mass, not a printed value.

Key:
[1] = test system: HIV; details: relative to the most strongly active substances of EP 484 281; cited from earlier work
[2] = test system: HIV-1 (strain IIIB); details: MT4 cells infected with HIV-1 IIIB; p24 ELISA on third and fourth days after infection
Description: Test for Antiviral Activity
HIV-1 (strain IIIB) was adsorbed on the cells for 2 hours at 37°. The inoculum was then removed and the infected cells were transferred to tissue culture plates which contained the test compound at different concentrations. In this context, the virus inoculum was chosen such that the concentration of viral p24 antigen increased exponentially in the cell supernatant up to the fourth day after the infection. On the third and fourth days after the infection, the cell supernatants were analyzed by ELISA for p24 antigen. IC50 values were determined by comparing the p24 concentrations in the supernatant from the infected, substance-treated cells and in the supernatant from the untreated infected control cells.

Molecule | activity against HIV, times weaker than MeIle-4-cyclosporin or MeVal-4-cyclosporin [1] | IC50 (p24 antigen in cell supernatant) [2]
(gamma-hydroxy-N-methylleucine)cyclosporin | 5-6 times | 
C/C=C/C[C@@H](C)[C@@H](O)[C@H]1C(=O)N[C@@H](CC)C(=O)N(C)[C@H](CO)C(=O)N(C)[C@@H](CC(C)(C)O)C(=O)N[C@@H](C(C)C)C(=O)N(C)[C@@H](CC(C)C)C(=O)N[C@@H](C)C(=O)N[C@H](C)C(=O)N(C)[C@@H](CC(C)C)C(=O)N(C)[C@@H](CC(C)C)C(=O)N(C)[C@@H](C(C)C)C(=O)N1C [3-N-methyl-(D)-serine-4-(gamma-hydroxy)-N-methylleucinecyclosporin] |  | 0.1 µg/mL (≈ 0.0801 µM)
